Test: Serum concentration over time after transdermal application of the drug patch on microporated skin (FIG. 10a, 10b)
Format: in vivo
Conditions: over a short period of about two hours
Text: The drug is entering the permeation surface by passive diffusion. The amount of drug entering the permeation surface is mainly determined by the permeation surface A(t) over time, as long as the patch 5 provides a sufficient amount of drug. Preferably the patch 5 is able to provide much larger quantities of drug than the permeation surface A(t) is able to absorb. Preferably the patch 5 is able to provide a sufficient concentration level of the permeant at the permeation surface over a period of time during with the permeant is applied. Therefore, the serum concentration as a function of time can be determined by an appropriate poration of the skin 1 with an initial microporation.
FIG. 10a to 10b show the administration of the same drug, for example 100 mg acetylsalicylic acid, the drug being arranged on the skin 1 as disclosed in FIG. 3c. Depending on the permeation surface A(t) as a function of time, the level of the serum concentration as well as the time period within which the drug is released, can be predescribed. In FIG. 10a the permeation surface A(t), not shown in detail, is chosen such that the maximal serum concentration is about 25 g/l over a short period of time of about two hours. […]

maximal serum concentration (FIG. 10a, 100 mg acetylsalicylic acid on porated skin (transdermal application TD)): about 25 g/l | maximal serum concentration (FIG. 10b, fast application (turbo), 100 mg acetylsalicylic acid on porated skin): about 30 g/l
SMILES: CC(=O)Oc1ccccc1C(=O)O [acetylsalicylic acid]

— patent publication US20090306576A1, “System for Transmembrane Administration of a Permeant and Method for Administering a Permeant” (Pantec Biosolutions AG, priority 2005, published 2009)
